Source: ChEMBL document CHEMBL1914361, “Shishicrellastatins, inhibitors of cathepsin B, from the marine sponge Crella (Yvesia) spinulata” (Bioorg Med Chem, 2011)

Target: Cathepsin B (Bos taurus, UniProt P07688)
Experiment: Inhibition of bovine cathepsin B after 1 hr by fluorescence assay

## C[C@H]([C@@H]1C[C@H]2C[C@](C)(OC2(C)C)[C@@H](CC[C@@H](C)[C@H]2CC[C@H]3C4=C(CC[C@]23C)[C@@]2(C)C[C@H](OS(=O)(=O)O)[C@@H](OS(=O)(=O)O)[C@H](C)C2=CC4)O1)[C@H]1CC[C@H]2C3=C(CC[C@]12C)[C@]12CC[C@](O)(OC1)[C@@H](C)[C@@H]2[C@@H](OS(=O)(=O)O)C3 [SHISHICRELLASTATIN A]
  IC50: 6.79 µM

## C[C@H]([C@@H]1C[C@H]2C[C@](C)(OC2(C)C)[C@@H](CC[C@@H](C)[C@H]2CC=C3C4=C(CC[C@@]32C)[C@@]2(C)C[C@H](OS(=O)(=O)O)[C@@H](OS(=O)(=O)O)[C@H](C)C2=CC4)O1)[C@H]1CC[C@H]2C3=C(CC[C@]12C)[C@]12CC[C@](O)(OC1)[C@@H](C)[C@@H]2[C@@H](OS(=O)(=O)O)C3 [SHISHICRELLASTATIN B]
  IC50: 6.81 µM
